Reference: patent publication US8822440B2, “Inhibiting cyclin D polypeptides” (Mayo Foundation for Medical Education and Research, priority 2006, dated 2014)

Experiments:
Type in all cases: cell-based, human
HMCL = assay: Cell cycle profiling of HMCL by flow cytometry
Method: Cell cycle profiling. HMCL were incubated with drug or vehicle as indicated, washed and resuspended in 1 mL PBS. Ice cold ethanol was added dropwise to 75% with regular mixing, and suspensions were incubated at −20° C. for 1 hour. Cells were washed again with PBS and resuspended in 0.1 mL RNAse A (100 μg/mL) at room temperature for 5-10 minutes. Propidium iodide (200 μL×100 μg/mL) was added immediately prior to analysis by flow cytometry. Cellular aggregates were excluded using CellQuest Doublet Discriminator Module, and cell cycle profile was determined using ModFit LT Mac 3.1 SP2 (Verity Software House, TopSham, Me.).

[1] = test system: cyclin D1, cyclin D2, cyclin D3; assay: Immunoblot of cyclin D proteins in HMCL
Method: (§1) Immunoblotting. Cytosolic extracts were prepared from HMCL or purified patient CD138^+ myeloma cells following exposure to kinetin riboside. Cells were washed with cold PBS, resuspended in cold RIPA buffer (5×10^6 cells/100 μL) containing fresh protease and phosphatase inhibitors (Santa Cruz Biotechnology, Santa Cruz, Calif.) and incubated on ice for 30 minutes with gentle mixing. The supernatant was repossessed following high speed centrifugation, and protein concentrations were determined by the Bradford assay. Immunoblot assays were performed as described elsewhere (Krajewski et al., Anal. Biochem., 236:221-228 (1996)). Briefly, equal amounts of protein were separated by SDS-PAGE and transferred to a PVDF nitrocellulose membrane using a semi-dry apparatus. Membranes were blocked using 5% skim milk in Tris buffered saline and probed with monoclonal mouse anti-cyclin D1 (DCS-6, Biosource, Camarillo, Calif.), polyclonal rabbit anti-cyclin D2 (#2924, Cell Signalling Technology), monoclonal mouse anti-cyclin D3 (DCS-22, BioSource), polyclonal rabbit anti-c-Maf (M-153, Santa Cruz), polyclonal rabbit anti-Cleaved Caspase 9 (Asp315) (Cell Signaling Technology), monoclonal mouse anti-β-actin (Cell Signaling Technology) and/or monoclonal anti-a-tubulin (B-7)(Santa Cruz Biotechnology, Santa Cruz, Calif.). Membrane proteins were visualized using HRP-conjugated species-specific secondary antibodies (Cell Signaling Technology) and enhanced chemiluminescence (Pierce, Rockford, Ill.).

H929 and U266 HMCL = assay: Gene expression profiling (Affymetrix) of H929 and U266; details: 5 μM, 4 hours
Method: Gene expression profiling. H929 and U266 HMCL were treated with kinetin riboside (5 μM), an unrelated cytotoxic pristimerin (0.5 μM), or DMSO vehicle for 4 hours under normal culture conditions. RNA was then isolated using Trizol and further purified by Qiagen column, according to the manufacturer's instructions and was assessed using a BioAnalyzer 2100 (Agilent Technologies, Palo Alto, Calif.). Microarray hybridization using Affymetrix Hg_U133—2+ chips (Affymetrix, Santa Clara, Calif.) was performed as described elsewhere (Abraham et al., Blood 105, 794-803 (2005)). Gene expression intensity values were log transformed, normalized by chip and by cell line to DMSO-control treated samples and analyzed using GeneSpring 7 (Agilent Technologies, Palo Alto, Calif.). Expression values were filtered by raw intensity level to exclude non-expressed probe-sets with raw expression within one log (10) of the minimum level observed. Only probe sets with sub-threshold intensities in all samples (treated and untreated) were excluded.
Analysis of CREM gene variant transcript expression. […]

caspase 9 = assay: Immunoblot of caspase 9 cleavage in HMCL; details: HMCL and CD138+ patient myeloma cells
Method: as §1, with “Membrane proteins were visualized using HRP-conjugated species-specific secondary antibodies (Cell Signaling Technology) and enhanced chemiluminescence (Pierce, Rockford, Ill.).” left out

OC[C@H]1O[C@@H](n2cnc3c(NCc4ccco4)ncnc32)[C@H](O)[C@@H]1O [kinetin riboside, N6-Furfuryladenosine]
cell cycle profile (HMCL; H929 and U266, 10 μM, 20 hours): cell cycle arrest at G0/G1
fall in proportion of cells entering S-phase (HMCL; all HMCL tested, 10 μM, within 20 hours): 50-70%
lag between exposure and cyclin D1 or D2 suppression [1]: 4 to 6 h
time to suppression of cyclin D1 and D2 proteins ([1]; H929, 10 μM): ≤ 6 h
time until cyclin D3 levels significantly affected ([1]; H929, 10 μM): ≥ 28 h
cyclin D3 protein levels ([1]; HMCL, 10 μM, 16 hours): did not influence cyclin D3 levels
cyclin D1 and D2 protein levels in Kms11 ([1]; Kms11): significant suppression only of cyclin D2 but not D1
cyclin D1 protein level in U266 ([1]; U266, 10 μM, 16 hours): suppression of cyclin D1
cyclin D1 and/or D2 protein levels ([1]; all HMCL tested, 10 μM, 16 hours): significant suppression
CREM isoform expression (H929 and U266 HMCL): preferential induction of CREM isoforms
number of genes with 3-fold or greater change in expression in both H929 and U266 (H929 and U266 HMCL): approximately 35 genes
time to caspase-9 cleavage (caspase 9): ≤ 16 h
